# ChEMBL document CHEMBL5233281, “Design, synthesis and biological evaluation of novel 1,3,4,9-tetrahydropyrano[3,4-b]indoles as potential treatment of triple negative breast cancer by suppressing PI3K/AKT/mTOR pathway” (Bioorg Med Chem, 2021)
# pIC50: −log10 of the molar value.
# System: MDA-MB-231
# Assay: Antiproliferative activity against human MDA-MB-231 cells assessed as inhibition of cell growth incubated for 72 hrs by SRB assay
# Assay type: functional, cell-based
# Settings: MDA-MB-231, 72 h
row,pIC50,Compound
1,5.16,C[C@@H](Nc1cc(F)cc(F)c1)c1cc(C(=O)N(C)C)cc2c(=O)cc(N3CCOCC3)oc12 [AZD-8186]

# System: A549
# Assay: Antiproliferative activity against human A549 cells assessed as inhibition of cell growth incubated for 72 hrs by CCK8 assay
# Assay type: functional, cell-based
# Settings: A549, 72 h
row,pIC50,Compound
1,< 4.70,Cc1cccc(C2OCCc3c2[nH]c2ccccc32)c1 (stereo unspecified)
2,< 4.70,COc1ccccc1C1OCCc2c1[nH]c1ccccc21 (stereo unspecified)
3,4.70,COc1ccc2cc(C3OCCc4c3n(Cc3ccccc3)c3ccccc43)ccc2c1 (stereo unspecified)
4,< 4.70,c1ccc(C2OCCc3c2[nH]c2ccccc32)cc1 (stereo unspecified)
5,4.72,COc1ccc(C2OCCc3c2[nH]c2ccccc32)cc1 (stereo unspecified)
6,4.71,Fc1ccc(C2OCCc3c2[nH]c2ccccc32)cc1 (stereo unspecified)
7,4.76,COc1ccc2cc(C3OCCc4c3n(C)c3ccccc43)ccc2c1 (stereo unspecified)
8,< 4.70,COc1ccc(C2OCCc3c2[nH]c2ccc(OC)cc32)cc1 (stereo unspecified)
9,< 4.70,COc1cccc(C2OCCc3c2[nH]c2ccccc32)c1 (stereo unspecified)
10,4.81,COc1ccc2cc(C3OCCc4c3[nH]c3ccccc43)ccc2c1 (stereo unspecified)
11,< 4.70,COc1ccc(C2OCCc3c2[nH]c2ccccc32)cc1OC (stereo unspecified)
12,4.75,Clc1ccc(C2OCCc3c2[nH]c2ccccc32)cc1 (stereo unspecified)
13,< 4.70,COc1ccc(C2OCCc3c2[nH]c2ccccc32)c(OC)c1OC (stereo unspecified)
14,< 4.70,CC(=O)Oc1ccc(C2OCCc3c2[nH]c2ccccc32)cc1 (stereo unspecified)
15,< 4.70,COc1ccc(C2OCCc3c2[nH]c2ccc(Br)cc32)cc1 (stereo unspecified)
16,< 4.70,Cc1ccc(C2OCCc3c2[nH]c2ccccc32)cc1 (stereo unspecified)
17,< 4.70,c1ccc(-c2ccc(C3OCCc4c3[nH]c3ccccc43)cc2)cc1 (stereo unspecified)
18,4.72,COc1cc(C2OCCc3c2[nH]c2ccccc32)cc(OC)c1OC (stereo unspecified)
19,< 4.70,c1ccc2cc(C3OCCc4c3[nH]c3ccccc43)ccc2c1 (stereo unspecified)

# System: BGC-823
# Assay: Antiproliferative activity against human BGC-823 cells assessed as inhibition of cell growth incubated for 72 hrs by CCK8 assay
# Assay type: functional, cell-based
# Settings: BGC-823, 72 h
row,pIC50,Compound
1,< 4.70,Cc1cccc(C2OCCc3c2[nH]c2ccccc32)c1 (stereo unspecified)
2,< 4.70,COc1ccccc1C1OCCc2c1[nH]c1ccccc21 (stereo unspecified)
3,4.71,COc1ccc2cc(C3OCCc4c3n(Cc3ccccc3)c3ccccc43)ccc2c1 (stereo unspecified)
4,< 4.70,c1ccc(C2OCCc3c2[nH]c2ccccc32)cc1 (stereo unspecified)
5,4.81,COc1ccc(C2OCCc3c2[nH]c2ccccc32)cc1 (stereo unspecified)
6,4.83,Fc1ccc(C2OCCc3c2[nH]c2ccccc32)cc1 (stereo unspecified)
7,4.74,COc1ccc2cc(C3OCCc4c3n(C)c3ccccc43)ccc2c1 (stereo unspecified)
8,< 4.70,COc1ccc(C2OCCc3c2[nH]c2ccc(OC)cc32)cc1 (stereo unspecified)
9,< 4.70,COc1cccc(C2OCCc3c2[nH]c2ccccc32)c1 (stereo unspecified)
10,4.88,COc1ccc2cc(C3OCCc4c3[nH]c3ccccc43)ccc2c1 (stereo unspecified)
11,< 4.70,COc1ccc(C2OCCc3c2[nH]c2ccccc32)cc1OC (stereo unspecified)
12,4.91,Clc1ccc(C2OCCc3c2[nH]c2ccccc32)cc1 (stereo unspecified)
13,< 4.70,COc1ccc(C2OCCc3c2[nH]c2ccccc32)c(OC)c1OC (stereo unspecified)
14,< 4.70,CC(=O)Oc1ccc(C2OCCc3c2[nH]c2ccccc32)cc1 (stereo unspecified)
15,< 4.70,COc1ccc(C2OCCc3c2[nH]c2ccc(Br)cc32)cc1 (stereo unspecified)
16,< 4.70,Cc1ccc(C2OCCc3c2[nH]c2ccccc32)cc1 (stereo unspecified)
17,< 4.70,c1ccc(-c2ccc(C3OCCc4c3[nH]c3ccccc43)cc2)cc1 (stereo unspecified)
18,4.74,COc1cc(C2OCCc3c2[nH]c2ccccc32)cc(OC)c1OC (stereo unspecified)
19,4.75,c1ccc2cc(C3OCCc4c3[nH]c3ccccc43)ccc2c1 (stereo unspecified)

# System: PC-3
# Assay: Antiproliferative activity against human PC-3 cells assessed as inhibition of cell growth incubated for 72 hrs by CCK8 assay
# Assay type: functional, cell-based
# Settings: PC-3, 72 h
row,pIC50,Compound
1,< 4.70,Cc1cccc(C2OCCc3c2[nH]c2ccccc32)c1 (stereo unspecified)
2,< 4.70,COc1ccccc1C1OCCc2c1[nH]c1ccccc21 (stereo unspecified)
3,4.83,COc1ccc2cc(C3OCCc4c3n(Cc3ccccc3)c3ccccc43)ccc2c1 (stereo unspecified)
4,< 4.70,c1ccc(C2OCCc3c2[nH]c2ccccc32)cc1 (stereo unspecified)
5,4.75,COc1ccc(C2OCCc3c2[nH]c2ccccc32)cc1 (stereo unspecified)
6,5.21,Fc1ccc(C2OCCc3c2[nH]c2ccccc32)cc1 (stereo unspecified)
7,4.78,COc1ccc2cc(C3OCCc4c3n(C)c3ccccc43)ccc2c1 (stereo unspecified)
8,< 4.70,COc1ccc(C2OCCc3c2[nH]c2ccc(OC)cc32)cc1 (stereo unspecified)
9,< 4.70,COc1cccc(C2OCCc3c2[nH]c2ccccc32)c1 (stereo unspecified)
10,4.90,COc1ccc2cc(C3OCCc4c3[nH]c3ccccc43)ccc2c1 (stereo unspecified)
11,4.74,COc1ccc(C2OCCc3c2[nH]c2ccccc32)cc1OC (stereo unspecified)
12,4.89,Clc1ccc(C2OCCc3c2[nH]c2ccccc32)cc1 (stereo unspecified)
13,4.71,COc1ccc(C2OCCc3c2[nH]c2ccccc32)c(OC)c1OC (stereo unspecified)
14,< 4.70,CC(=O)Oc1ccc(C2OCCc3c2[nH]c2ccccc32)cc1 (stereo unspecified)
15,< 4.70,COc1ccc(C2OCCc3c2[nH]c2ccc(Br)cc32)cc1 (stereo unspecified)
16,4.74,Cc1ccc(C2OCCc3c2[nH]c2ccccc32)cc1 (stereo unspecified)
17,< 4.70,c1ccc(-c2ccc(C3OCCc4c3[nH]c3ccccc43)cc2)cc1 (stereo unspecified)
18,4.86,COc1cc(C2OCCc3c2[nH]c2ccccc32)cc(OC)c1OC (stereo unspecified)
19,< 4.70,c1ccc2cc(C3OCCc4c3[nH]c3ccccc43)ccc2c1 (stereo unspecified)

# System: MCF7
# Assay: Antiproliferative activity against human MCF7 cells assessed as inhibition of cell growth incubated for 72 hrs by CCK8 assay
# Assay type: functional, cell-based
# Settings: MCF7, 72 h
row,pIC50,Compound
1,< 4.70,Cc1cccc(C2OCCc3c2[nH]c2ccccc32)c1 (stereo unspecified)
2,< 4.70,COc1ccccc1C1OCCc2c1[nH]c1ccccc21 (stereo unspecified)
3,4.78,COc1ccc2cc(C3OCCc4c3n(Cc3ccccc3)c3ccccc43)ccc2c1 (stereo unspecified)
4,< 4.70,c1ccc(C2OCCc3c2[nH]c2ccccc32)cc1 (stereo unspecified)
5,4.78,COc1ccc(C2OCCc3c2[nH]c2ccccc32)cc1 (stereo unspecified)
6,5.15,Fc1ccc(C2OCCc3c2[nH]c2ccccc32)cc1 (stereo unspecified)
7,4.89,COc1ccc2cc(C3OCCc4c3n(C)c3ccccc43)ccc2c1 (stereo unspecified)
8,< 4.70,COc1ccc(C2OCCc3c2[nH]c2ccc(OC)cc32)cc1 (stereo unspecified)
9,4.74,COc1cccc(C2OCCc3c2[nH]c2ccccc32)c1 (stereo unspecified)
10,4.91,COc1ccc2cc(C3OCCc4c3[nH]c3ccccc43)ccc2c1 (stereo unspecified)
11,< 4.70,COc1ccc(C2OCCc3c2[nH]c2ccccc32)cc1OC (stereo unspecified)
12,4.80,Clc1ccc(C2OCCc3c2[nH]c2ccccc32)cc1 (stereo unspecified)
13,< 4.70,COc1ccc(C2OCCc3c2[nH]c2ccccc32)c(OC)c1OC (stereo unspecified)
14,4.71,CC(=O)Oc1ccc(C2OCCc3c2[nH]c2ccccc32)cc1 (stereo unspecified)
15,< 4.70,COc1ccc(C2OCCc3c2[nH]c2ccc(Br)cc32)cc1 (stereo unspecified)
16,< 4.70,Cc1ccc(C2OCCc3c2[nH]c2ccccc32)cc1 (stereo unspecified)
17,< 4.70,c1ccc(-c2ccc(C3OCCc4c3[nH]c3ccccc43)cc2)cc1 (stereo unspecified)
18,4.73,COc1cc(C2OCCc3c2[nH]c2ccccc32)cc(OC)c1OC (stereo unspecified)
19,< 4.70,c1ccc2cc(C3OCCc4c3[nH]c3ccccc43)ccc2c1 (stereo unspecified)

# System: MDA-MB-231
# Assay: Antiproliferative activity against human MDA-MB-231 cells assessed as inhibition of cell growth incubated for 72 hrs by CCK8 assay
# Assay type: functional, cell-based
# Settings: MDA-MB-231, 72 h
row,pIC50,Compound
1,< 4.70,Cc1cccc(C2OCCc3c2[nH]c2ccccc32)c1 (stereo unspecified)
2,< 4.70,COc1ccccc1C1OCCc2c1[nH]c1ccccc21 (stereo unspecified)
3,4.80,COc1ccc2cc(C3OCCc4c3n(Cc3ccccc3)c3ccccc43)ccc2c1 (stereo unspecified)
4,< 4.70,c1ccc(C2OCCc3c2[nH]c2ccccc32)cc1 (stereo unspecified)
5,4.97,COc1ccc(C2OCCc3c2[nH]c2ccccc32)cc1 (stereo unspecified)
6,5.17,Fc1ccc(C2OCCc3c2[nH]c2ccccc32)cc1 (stereo unspecified)
7,4.93,COc1ccc2cc(C3OCCc4c3n(C)c3ccccc43)ccc2c1 (stereo unspecified)
8,4.77,COc1ccc(C2OCCc3c2[nH]c2ccc(OC)cc32)cc1 (stereo unspecified)
9,4.82,COc1cccc(C2OCCc3c2[nH]c2ccccc32)c1 (stereo unspecified)
10,5.34,COc1ccc2cc(C3OCCc4c3[nH]c3ccccc43)ccc2c1 (stereo unspecified)
11,4.75,COc1ccc(C2OCCc3c2[nH]c2ccccc32)cc1OC (stereo unspecified)
12,4.88,Clc1ccc(C2OCCc3c2[nH]c2ccccc32)cc1 (stereo unspecified)
13,< 4.70,COc1ccc(C2OCCc3c2[nH]c2ccccc32)c(OC)c1OC (stereo unspecified)
14,< 4.70,CC(=O)Oc1ccc(C2OCCc3c2[nH]c2ccccc32)cc1 (stereo unspecified)
15,4.78,COc1ccc(C2OCCc3c2[nH]c2ccc(Br)cc32)cc1 (stereo unspecified)
16,< 4.70,Cc1ccc(C2OCCc3c2[nH]c2ccccc32)cc1 (stereo unspecified)
17,< 4.70,c1ccc(-c2ccc(C3OCCc4c3[nH]c3ccccc43)cc2)cc1 (stereo unspecified)
18,4.87,COc1cc(C2OCCc3c2[nH]c2ccccc32)cc(OC)c1OC (stereo unspecified)
19,< 4.70,c1ccc2cc(C3OCCc4c3[nH]c3ccccc43)ccc2c1 (stereo unspecified)

# System: not listed separately
# Assay: Antiproliferative activity against human MCF-10A cells assessed as inhibition of cell growth incubated for 72 hrs by CCK8 assay
# Assay type: toxicity, cell-based
# Settings: not given
row,Compound,IC50 at 72 h [µM]
1,COc1ccc2cc(C3OCCc4c3n(Cc3ccccc3)c3ccccc43)ccc2c1 (stereo unspecified),41.4
2,COc1ccc(C2OCCc3c2[nH]c2ccccc32)cc1 (stereo unspecified),35.9
3,Fc1ccc(C2OCCc3c2[nH]c2ccccc32)cc1 (stereo unspecified),32
4,COc1ccc2cc(C3OCCc4c3n(C)c3ccccc43)ccc2c1 (stereo unspecified),30
5,COc1ccc(C2OCCc3c2[nH]c2ccc(OC)cc32)cc1 (stereo unspecified),51.9
6,COc1cccc(C2OCCc3c2[nH]c2ccccc32)c1 (stereo unspecified),40.8
7,COc1ccc2cc(C3OCCc4c3[nH]c3ccccc43)ccc2c1 (stereo unspecified),21.9
8,COc1ccc(C2OCCc3c2[nH]c2ccccc32)cc1OC (stereo unspecified),40.4
9,Clc1ccc(C2OCCc3c2[nH]c2ccccc32)cc1 (stereo unspecified),35.4
10,COc1ccc(C2OCCc3c2[nH]c2ccc(Br)cc32)cc1 (stereo unspecified),45.1
11,COc1cc(C2OCCc3c2[nH]c2ccccc32)cc(OC)c1OC (stereo unspecified),46.2

# System: not listed separately
# Assay: Selectivity index, ratio of IC50 for antiproliferative activity against human MCF-10A cells to IC50 for antiproliferative activity against human MDA-MB-231 cells
# Assay type: toxicity, cell-based
# Settings: MCF-10A cells and MDA-MB-231 cells, read-out: Ratio IC50
row,Compound,selectivity ratio
1,COc1ccc2cc(C3OCCc4c3n(Cc3ccccc3)c3ccccc43)ccc2c1 (stereo unspecified),2.63
2,COc1ccc(C2OCCc3c2[nH]c2ccccc32)cc1 (stereo unspecified),3.32
3,Fc1ccc(C2OCCc3c2[nH]c2ccccc32)cc1 (stereo unspecified),6.8
4,COc1ccc2cc(C3OCCc4c3n(C)c3ccccc43)ccc2c1 (stereo unspecified),3.35
5,COc1ccc(C2OCCc3c2[nH]c2ccc(OC)cc32)cc1 (stereo unspecified),3.07
6,COc1cccc(C2OCCc3c2[nH]c2ccccc32)c1 (stereo unspecified),2.67
7,COc1ccc2cc(C3OCCc4c3[nH]c3ccccc43)ccc2c1 (stereo unspecified),4.77
8,COc1ccc(C2OCCc3c2[nH]c2ccccc32)cc1OC (stereo unspecified),2.27
9,COc1ccc(C2OCCc3c2[nH]c2ccc(Br)cc32)cc1 (stereo unspecified),2.42
